Assay [1] relates to pAKT (S473) in T47D.1 cells, PI3Kα H1047R mutation present. As to the kind of experiment: HTRF pAKT-T47D cell assay. The class given is cell-based. The note with it: RPMI+10% FBS+0.2 units/mL bovine insulin. On the procedure: Compounds A and B were assayed using homogeneous time-resolved fluorescence (HTRF).
Gibco RPMI 1640 Medium, no phenol red; Gibco RPMI 1640 Medium; Gibco Trypsin-EDTA (0.5%), no phenol red; Gibco DPBS; Trypan blue solution 0.4% (Corning); Avantor Seradigm Premium Grade Fetal Bovine Serum (FBS); Greiner 784080-384 well TC treated white plates; pAKT (Ser473) HTRF; Gibco Insulin, human recombinant, zinc solution; Gibco Recovery Cell Culture Freezing Medium; Countess II FL Automated Cell Counter (ThermoFisher); Countess II Slides (ThermoFisher); Microscope; and PHERAstar FSX Microplate Reader (BMG LABTECH, Inc.).
The cell line ID was T47D.1, the HTRF detection was pAKT (S473), a PI3Kα H1047R mutation was present, the seeding density was 5000, the timepoint was 1 hour, and the medium used was RPMI+10% FBS (no phenol red)+0.2 units/mL bovine insulin.
• The cell density was not permitted to reach 100% confluence. The cells were split 1.5 when they reached ˜80% confluence. • Cells were split twice a week (Mon and Fri). • Cells over passage 18 were not used (˜2 months of maintenance). • Antibiotics were not used for tissue culture maintenance or assays.
The procedure was as follows: • 1. Prepared ARP: • a. Stamped 12.5 nL from 10 mM source plate to destination plate using Echo. Sealed plate immediately and froze at −20° C. if it was not used on the same day. • b. If a frozen ARP was used, the plate was thawed and spun at 1000 rpm×1 min. • 2. Preparation of cells (adherent): • a. Aspirated media from cells. Washed cells with sterile 1×PBS. Aspirated PBS and added appropriate amount of Trypsin. • b. Once cells were fully trypsinized, added appropriate media to resuspend cells. Transferred cells to a 15 mL or 50 mL conical tube. • c. Counted cells on the Countess II Cell Counter. • 3. Plating of cells: • a. […] Calculated the amount of HTRF antibody master mix needed to perform the desired experiments plus any extra dead volume required for dispensing (4 mL required per well). […]
• 6. Measured on the PHERAstar/Envision using the HTRF protocol. When plates were read, all wells were read.
Background: In TR-FRET formats the signal depends on donor and acceptor labels being close together.

The target of assay [2] is T1, PI3Kα H1047R (full-length p110-α H1047R complexed with truncated p85-α, residues 322-694) + wortmannin (Homo sapiens, UniProt P42336, H1047R).
T1 construct: The protein contained a full-length p110-α subunit harboring the H1047R mutation with an N-terminal AviTag
T1 sequence (P42336 whole entry H1047R, the tested form may be a part): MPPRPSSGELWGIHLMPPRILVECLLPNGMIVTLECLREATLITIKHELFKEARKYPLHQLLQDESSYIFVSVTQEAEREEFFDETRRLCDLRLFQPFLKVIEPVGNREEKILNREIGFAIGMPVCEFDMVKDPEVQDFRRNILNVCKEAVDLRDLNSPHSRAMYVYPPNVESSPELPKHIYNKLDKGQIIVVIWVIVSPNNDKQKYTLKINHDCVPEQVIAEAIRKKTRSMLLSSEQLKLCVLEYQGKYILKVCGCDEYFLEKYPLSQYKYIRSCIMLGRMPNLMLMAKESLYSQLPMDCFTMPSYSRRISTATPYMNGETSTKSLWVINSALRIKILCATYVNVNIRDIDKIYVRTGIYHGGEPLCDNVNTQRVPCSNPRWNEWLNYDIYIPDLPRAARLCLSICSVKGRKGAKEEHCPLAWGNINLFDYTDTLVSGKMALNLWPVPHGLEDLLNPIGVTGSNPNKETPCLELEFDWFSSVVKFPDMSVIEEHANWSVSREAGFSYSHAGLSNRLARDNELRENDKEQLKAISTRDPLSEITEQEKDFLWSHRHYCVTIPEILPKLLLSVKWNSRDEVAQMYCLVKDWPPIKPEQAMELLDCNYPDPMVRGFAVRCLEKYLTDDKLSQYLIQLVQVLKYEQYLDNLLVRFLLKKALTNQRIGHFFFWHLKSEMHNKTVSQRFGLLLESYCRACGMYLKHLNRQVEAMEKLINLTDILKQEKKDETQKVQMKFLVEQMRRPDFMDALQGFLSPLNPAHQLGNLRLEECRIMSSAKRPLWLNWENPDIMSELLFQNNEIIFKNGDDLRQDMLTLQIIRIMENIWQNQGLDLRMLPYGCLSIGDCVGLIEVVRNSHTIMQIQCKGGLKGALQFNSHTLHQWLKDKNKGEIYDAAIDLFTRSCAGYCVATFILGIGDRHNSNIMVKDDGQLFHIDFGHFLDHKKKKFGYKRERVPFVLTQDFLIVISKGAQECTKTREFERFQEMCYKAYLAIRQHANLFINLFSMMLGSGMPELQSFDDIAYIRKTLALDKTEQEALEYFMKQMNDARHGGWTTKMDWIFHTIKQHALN
T1 sequence (P27986 322-694 partner limits assumed): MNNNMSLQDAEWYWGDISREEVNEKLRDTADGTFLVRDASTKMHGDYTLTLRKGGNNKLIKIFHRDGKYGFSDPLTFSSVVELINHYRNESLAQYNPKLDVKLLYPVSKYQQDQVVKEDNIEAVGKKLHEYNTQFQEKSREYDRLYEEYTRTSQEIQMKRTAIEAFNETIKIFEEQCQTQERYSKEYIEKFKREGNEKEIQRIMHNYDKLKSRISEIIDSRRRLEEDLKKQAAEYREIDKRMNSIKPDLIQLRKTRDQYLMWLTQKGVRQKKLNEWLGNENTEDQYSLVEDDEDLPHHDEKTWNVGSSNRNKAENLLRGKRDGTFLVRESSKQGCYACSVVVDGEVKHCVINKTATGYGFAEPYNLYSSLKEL
As to the kind of experiment: Surface Plasmon Resonance (SPR) binding, Biacore 8K, ATP site blocked with wortmannin. The conditions noted are these: multi-cycle kinetics, 25° C., protein pre-incubated with 1 μM wortmannin. On the procedure:
SPR experiments were performed on a Biacore 8K instrument. A biotinylated recombinant PI3Kα H1047R protein was used in this study. The protein contained a full-length p110-α subunit harboring the H1047R mutation with an N-terminal AviTag, complexed with a truncated p85-α subunit (amino acid residues 322-694). The protein was first incubated with 1 μM wortmannin for 30 min at RT to covalently block the ATP binding site, then immobilized onto a streptavidin sensor chip by flowing the protein through the sensor chip at typically 20 μg/mL concentration and 2 μL/min flow rate for 1200 seconds. Compound binding affinities were measured in the multi-cycle kinetics mode, at 90 μL/min flow rate with 90 seconds association time and 240 seconds dissociation time. The running buffer contained 50 mM Tris, pH 7.5, 150 mMNaCl, 0.01% Brij35, 1 mM DTT, 1 mM MgCl2, 0.05% Tween-20 and 2% DMSO. Temperature was maintained at 25° C. during experiments. SPR can also be utilized to study competition between Compounds A and B, i.e., by measuring the binding of Compound A in the presence and absence of Compound B, and by measuring the binding of Compound B in the presence and absence of Compound A.

Molecules are shown by their SMILES.

As to `Cc1c([C@@H](Nc2nc3ccc(C(N)=O)cc3[nH]2)C(C)C)oc2ccc(F)cc12` [Compound B, (S)-2-((1-(5-fluoro-3-methylbenzofuran-2-yl)-2-methylpropyl)amino)-1H-benzo[d]imidazole-6-carboxamide], in assay [1] (Homo sapiens, T47D, 1 h), 213 nM corresponded to half-maximal inhibition (IC50). The Kd in assay [2] amounted to 8.6 nM.

`Cc1c([C@@H](NC(=O)Nc2cncc(C(=O)N(C)C)c2)C(C)C)oc2ccc(F)cc12` [Compound A, (S)-5-(3-(1-(5-fluoro-3-methylbenzofuran-2-yl)-2-methylpropyl)ureido)-N,N-dimethylnicotinamide]: the IC50 stood at 598 nM in assay [1] (1 hour) and 455 nM in assay [1] (Homo sapiens, T47D, 1 h). Further, in assay [2], the dissociation constant Kd was found to be 38.4 nM.

A word on the IC50: it is the midpoint of a concentration-inhibition curve. A lower IC50 goes with greater potency. One may read the Kd as the equilibrium constant for the complex coming apart.

The values above are taken from patent US20260048045A1, “PI3K-ALPHA INHIBITORS FOR THE TREATMENT OF CANCER” (Scorpion Therapeutics, Inc., priority 2022, published 2026).
